Measurements published in US8877745B2, “CCR2 receptor antagonists, method for producing the same, and use thereof as medicaments” (Boehringer Ingelheim International GmbH, priority 2010, dated 2014).

Target: T1, CCR2 (Homo sapiens, UniProt P41597)
T1 construct: Membranes were prepared from THP-1 cells; endogenous in cells; host or cells: THP-1 (human acute monocytic leukaemia cells), membrane preparation
Assay: CCR2 receptor membrane binding assay ([125I]MCP-1, THP-1 cell membranes, SPA beads)
Conditions: THP-1 membranes, [125I]MCP-1, bound radioactivity determined after 8 h; read-out: hKi
Method: The above exemplary substances have been tested for binding to CCR2 using a binding assay as outlined herein below:
THP-1 cells (human acute monocytic leukaemia cells) were cultured under standardized conditions at 37° C. and 5% CO2 in a humidified incubator. THP-1 cells were cultivated in RPMI 1640 medium (Gibco 21875) containing 1% MEM-NEAA (Gibso 11140) 2 mM L-glutamine, 1.5 g/L sodium bicarbonate, 4.5 g/L glucose, 10 mM HEPES and 1.0 mM sodium pyruvate, 90%; 10% fetal calf serum (FCS Gibco 10500-064).
Membranes were prepared from THP-1 cells. THP-1 cells were centrifuged at 300×g at 4° C. for 10 min. The cell pellet was resuspended in Phosphate Buffer Saline (PBS, including 10 μM Pefabloc and a protease inhibitor mix ‘complete’, Boehringer Mannheim (1 tablet/50 ml)), to a concentration of […]. The membrane preparation was performed by disrupting the cells by nitrogen […] (at 50 bar, for 1 h) in a “Nitrogen Bombe” (Parr Instrument). Cell debris was removed by centrifugation (800×g at 4° C., 1 min). The supernatant was centrifuged at 80000×g, 4° C. for 30 min to sediment the cell membranes. Usually 50 mg of protein (Bradford assay) were yielded from 1×10E9 cells. The membranes were resuspended in 25 mM HEPES, 25 mM MgCl2, 1 mM CaCl2, 10% Glycerine for storage in aliquots at −80° C. in 25 mM HEPES, 25 mM MgCl2, 1 mM CaCl2, 10% Glycerine and stored at −80° C.
Receptor Membrane Binding Assay:
Perkin Elmer NEX 332 Jod 125 MCP-1, Stock: 2200 Ci/mmol solved in […] assay buffer, stored at −20° C. THP-1 membrane were adjusted with 25 mM HEPES, pH 7.2; 5 mM MgCl2; 0.5 mM CaCl2; 0.2% BSA assay buffer to a concentration of 2.5 μg/15 μl. Amersham Biosciences PVT-WGA Beads (RPNQ0001) were adjusted with assay buffer to a concentration of 0.24 mg/30 μl. For preparation of the membrane-bead-suspension membranes and beads were incubated for 30 min at RT under rotation (60 rpm) with a ratio of 1:2. Test compounds dissolved in 100% DMSO to a concentration of 10 mM and are further diluted with 100% DMSO to 1 mM. All additional compound dilutions were obtained with assay buffer, final 1% DMSO. Compounds, membrane-bead-suspension and [^125I]MCP-1 (ca. 25000 cpm/10 μl) were incubated. Bound radioactivity was determined by scintillation counter after 8 h. Determination of affinity of test compounds (dissociation constant hKi) is calculated by iterative fitting of experimental data using the “easy sys” program, which is based on law of mass action (Schittkowski K. (1994), Numerische Mathematik, Vol. 68, 129-142).

T1 sequence (P41597 whole entry): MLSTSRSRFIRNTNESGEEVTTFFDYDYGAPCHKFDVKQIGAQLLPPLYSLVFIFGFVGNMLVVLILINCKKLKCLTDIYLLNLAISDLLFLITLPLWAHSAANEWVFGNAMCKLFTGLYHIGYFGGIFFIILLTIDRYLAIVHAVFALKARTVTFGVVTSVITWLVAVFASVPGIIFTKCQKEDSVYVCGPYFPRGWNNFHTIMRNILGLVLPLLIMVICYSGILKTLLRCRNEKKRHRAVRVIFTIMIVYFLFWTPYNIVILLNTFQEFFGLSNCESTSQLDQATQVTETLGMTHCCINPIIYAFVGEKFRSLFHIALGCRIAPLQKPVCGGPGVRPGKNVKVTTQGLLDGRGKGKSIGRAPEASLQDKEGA

| Compound | Ki [nM] |
| --- | --- |
| CO[C@@H]1COCC[C@@H]1NC1CCN(C(=O)c2ncnc(N3CCc4ccc(C)cc4C3)c2C)CC1 [Example 69f] | 17 |
| COC1COCCC1NC1CCN(C(=O)c2ncnc(N3CCn4c(-c5ccccc5)cnc4C3)c2C)CC1 (stereo not shown) [Example 62s] | 5140 |
| COC1COCCC1NC1CCN(C(=O)c2ncnc(N3CCC(c4cccc(C)c4)CC3)c2C)CC1 (stereo not shown) [Example 15] | 732 |
| COC1COCCC1NC1CCN(C(=O)c2ncnc(N3CCN(c4c(Cl)cncc4Cl)CC3)c2C)CC1 (stereo not shown) [Example 62aj] | 35 |
| COC1COCCC1NC1CCN(C(=O)c2ncnc(N3CCCC(c4ccc(F)cc4)C3)c2C)CC1 (stereo not shown) [Example 32] | 3600 |
| CO[C@@H]1COCC[C@@H]1NC1CCN(C(=O)c2ncnc(N3CCc4ccc(OC(F)(F)F)cc4C3)c2C)CC1 [Example 65] | 16 |
| CO[C@@H]1COCC[C@@H]1NC1CCN(C(=O)c2cc(N3CCc4ccc(C(F)(F)F)cc4C3)ncn2)CC1 [Example 62a] | 566 |
| COC1COCCC1NC1CCN(C(=O)c2ncnc(N3CCN(c4ccc(C(F)(F)F)cc4)CC3)c2C)CC1 (stereo not shown) [Example 62p] | 119 |
| CO[C@@H]1COCC[C@@H]1NC1CCN(C(=O)c2ncnc(N3CCc4ccc(F)cc4C3)c2C)CC1 [Example 69h] | 39 |
| CO[C@@H]1COCC[C@@H]1NC1CCN(C(=O)c2ncnc(N3CCc4ccc(C(F)(F)F)cc4C3)c2C)CC1 [Example 63] | 4 |
| COC1COCCC1NC1CCN(C(=O)c2ncnc(N3CCC(c4cccc(C(F)(F)F)c4)C3)c2C)CC1 (stereo not shown) [Example 52] | 270 |
| Cc1c(C(=O)N2CCC(N3CCC(N(C)S(C)(=O)=O)CC3)CC2)ncnc1N1CCC(c2cccc(Cl)c2)CC1 [Example 27] | 661 |
| COC1COCCC1NC1CCN(C(=O)c2ncnc(N3CCN(c4ccc(Cl)c(Cl)c4)CC3)c2C)CC1 (stereo not shown) [Example 62al] | 128 |
| COC1COCCC1NC1CCN(C(=O)c2ncnc(N3CCn4cc(C(F)(F)F)nc4C3)c2C)CC1 (stereo not shown) [Example 62ac] | 1000 |
| COC1COCCC1NC1CCN(C(=O)c2ncnc(N3CCc4ccc(OC(F)(F)F)cc4C3)c2C)CC1 (stereo not shown) [Example 8] | 11 |
| COc1c(C(=O)N2CCC(N[C@H]3CCOC[C@H]3OC)CC2)ncnc1N1CCc2ccc(C(F)(F)F)cc2C1 [Example 69b] | 9 |
| Cc1c(C(=O)N2CCC(N[C@@H]3CCOC[C@@H]3F)CC2)ncnc1N1COc2ccc(C(F)(F)F)cc2C1 [Example 69l] | 14 |
| CCN(CC)C1CCN(C(=O)c2ncnc(N3CCc4ccc(C(F)(F)F)cc4C3)c2C)CC1 [Example 74] | 552 |
| COC1COCCC1NC1CCN(C(=O)c2ncnc(N3CCC4(CCc5ccccc54)CC3)c2C)CC1 (stereo not shown) [Example 62] | 590 |
| CO[C@@H]1COCC[C@@H]1NC1CCN(C(=O)c2ncnc(N3CCC4(CCc5cc(Br)ccc5O4)CC3)c2C)CC1 [Example 62am] | 12 |

| Compound | Ki [nM] |
| --- | --- |
| Cc1c(C(=O)N2CCC(N3CCC(N(C)S(C)(=O)=O)CC3)CC2)ncnc1N1CCC(c2ccc(Cl)cc2)C1 (stereo not shown) [Example 47] | 1100 |
| CO[C@H]1COCC[C@H]1NC1CCN(C(=O)c2nc(C3CC3)nc(N3CCc4ccc(C(F)(F)F)cc4C3)c2C)CC1 [Example 69q] | 0.7 |
| COC1COCCC1NC1CCN(C(=O)c2ncnc(N3CCc4ccc(C(F)(F)F)cc4C3)c2C)CC1 (stereo not shown) [Example 60] | 5 |
| CO[C@H]1COCC[C@H]1NC1CCN(C(=O)c2ncnc(N3CCc4ccc(Br)cc4C3)c2C)CC1 [Example 69z] | 13 |
| CO[C@H]1COCC[C@H]1NC1CCN(C(=O)c2ncnc(N3CCc4ccc(C(F)(F)F)cc4C3)c2C)CC1 [Example 64] | 13 |
| Cc1c(C(=O)N2CCC(C(N)=O)(N3CCCCC3)CC2)ncnc1N1CCc2ccc(C(F)(F)F)cc2C1 [Example 78] | 1250 |
| CO[C@@H]1COCC[C@@H]1NC1CCN(C(=O)c2ncnc(N3CCC4(CCc5cc(Cl)ccc5O4)CC3)c2C)CC1 [Example 62an] | 12 |
| COC1COCCC1NC1CCN(C(=O)c2ncnc(N3CCC(c4ccc(Cl)cc4)CC3)c2C)CC1 (stereo not shown) [Example 18] | 331 |
| COC1COCCC1NC1CCN(C(=O)c2ncnc(N3CCCc4ccccc4C3)c2C)CC1 (stereo not shown) [Example 58] | 4240 |
| COc1c(C(=O)N2CCC(N[C@@H]3CCOC[C@@H]3OC)CC2)ncnc1N1CCc2ccc(C(F)(F)F)cc2C1 [Example 67] | 21 |
| COC1COCCC1NC1CCN(C(=O)c2ncnc(N3CCCC(c4cccc(F)c4)C3)c2C)CC1 (stereo not shown) [Example 12] | 1100 |
| COC1COCCC1NC1CCN(C(=O)c2ncnc(N3CCN(c4ccc(Cl)c(C(F)(F)F)c4)CC3)c2C)CC1 (stereo not shown) [Example 62w] | 54 |
| Cc1c(C(=O)N2CCC(N3CCC(N(C)S(C)(=O)=O)CC3)CC2)ncnc1N1CCC(c2cccc(C(F)(F)F)c2)CC1 [Example 20] | 480 |
| CO[C@@H]1COCC[C@@H]1NC1CCN(C(=O)c2ncnc(N3CCc4ccc(Br)cc4C3)c2C)CC1 [Example 69y] | 7 |
| Cc1c(C(=O)N2CCC(N3CCC(N(C)S(C)(=O)=O)CC3)CC2)ncnc1N1CCCC(c2ccc(C(F)(F)F)cc2)C1 (stereo not shown) [Example 34] | 4250 |
| COC1COCCC1NC1CCN(C(=O)c2ncnc(N3CCC4(CC3)CC(=O)c3cc(Br)ccc3O4)c2C)CC1 (stereo not shown) [Example 62i] | 184 |
| COC1COCCC1NC1CCN(C(=O)c2ncnc(N3CCC(c4ccc(Cl)cc4)C3)c2C)CC1 (stereo not shown) [Example 53] | 172 |
| COC1COCCC1NC1CCN(C(=O)c2ncnc(N3CCC4(C=Cc5ccccc54)CC3)c2C)CC1 (stereo not shown) [Example 23] | 455 |
| Cc1c(C(=O)N2CCC(N3CCCC(O)C3)CC2)ncnc1N1CCc2ccc(C(F)(F)F)cc2C1 (stereo not shown) [Example 77] | 410 |
| Cc1c(C(=O)N2CCC(N3CCC(N(C)S(C)(=O)=O)CC3)CC2)ncnc1N1CCc2ccc(C(F)(F)F)cc2C1 [Example 1] | 15 |

| Compound | Ki [nM] |
| --- | --- |
| CO[C@@H]1COCC[C@@H]1NC1CCN(C(=O)c2ncnc(N3CCc4ccc(Cl)cc4C3)c2C)CC1 [Example 66] | 22 |
| COC1COCCC1NC1CCN(C(=O)c2ncnc(N3CCN(c4ccc5c(c4)OCCO5)CC3)c2C)CC1 (stereo not shown) [Example 62ad] | 336 |
| COC1COCCC1NC1CCN(C(=O)c2ncnc(N3CCc4ccc(C(C)C)cc4C3)c2C)CC1 (stereo not shown) [Example 62k] | 12 |
| Cc1c(C(=O)N2CCC(N[C@H]3CCOC[C@H]3F)CC2)ncnc1N1CCc2ccc(Br)cc2C1 [Example 69ac] | 96 |
| COC1COCCC1NC1CCN(C(=O)c2ncnc(N3CCC(c4ccc(C)cc4)CC3)c2C)CC1 (stereo not shown) [Example 13] | 739 |
| COC1COCCC1NC1CCN(C(=O)c2ncnc(N3CCN(c4cccc(C(F)(F)F)c4)CC3)c2C)CC1 (stereo not shown) [Example 57] | 189 |
| COC1COCCC1NC1CCN(C(=O)c2ncnc(N3CCCC4(CCCCC4)C3)c2C)CC1 (stereo not shown) [Example 62f] | 9560 |
| Cc1c(C(=O)N2CCC(N3CCC(N(C)S(C)(=O)=O)CC3)CC2)ncnc1N1CCC(c2ccc(Cl)cc2)CC1 [Example 26] | 1970 |
| Cc1c(C(=O)N2CCC(NC3CCOCC3)CC2)ncnc1N1CCc2ccc(C(F)(F)F)cc2C1 [Example 69r] | 7 |
| COC1COCCC1NC1CCN(C(=O)c2ncnc(N3CCN(c4cc(Cl)cc(Cl)c4)CC3)c2C)CC1 (stereo not shown) [Example 62t] | 17 |
| Cc1c(C(=O)N2CCN(C(C)C)CC2)ncnc1N1CCc2ccc(C(F)(F)F)cc2C1 [Example 71] | 2100 |
| COc1c(C(=O)N2CCC(N3CCC(N(C)S(C)(=O)=O)CC3)CC2)ncnc1N1CCc2ccc(OC(F)(F)F)cc2C1 [Example 69] | 62 |
| COc1ccc(C2CCN(c3ncnc(C(=O)N4CCC(NC5CCOCC5OC)CC4)c3C)CC2)cc1 (stereo not shown) [Example 14] | 1610 |
| COC1COCCC1NC1CCN(C(=O)c2ncnc(N3Cc4ccc(C(F)(F)F)cc4C3)c2C)CC1 (stereo not shown) [Example 43] | 49 |
| COC1COCCC1NC1CCN(C(=O)c2ncnc(N3CCN(c4ncnc5scc(C)c45)CC3)c2C)CC1 (stereo not shown) [Example 62r] | 411 |
| COC1COCCC1NC1CCN(C(=O)c2ncnc(N3CCC(c4ccccc4)CC3)c2C)CC1 (stereo not shown) [Example 16] | 1510 |
| COC1COCCC1NC1CCN(C(=O)c2ncnc(N3Cc4ccccc4C4(CC4)C3)c2C)CC1 (stereo not shown) [Example 62l] | 1380 |
| Cc1c(C(=O)N2CCCN(CCO)CC2)ncnc1N1CCc2ccc(C(F)(F)F)cc2C1 [Example 76] | 3400 |
